Each structure is given as a SMILES string. Calls of active or inactive are those of the source. No rule for the calls is given here.

A word on the IC50: it is the midpoint of a concentration-inhibition curve.

The experiment has as its target methionyl-tRNA synthetase (Trypanosoma brucei brucei). As to the kind of experiment: inhibition of trypanosomal methionyl-tRNA synthetase – biochemical, fluorescence polarization, dose response, round 3, orthogonal assay for T. brucei MetRS inhibitor project, late-stage follow-up (AID 1053134). The following applies: recombinant T. brucei MetRS. A general note: Polarisation of emitted light reports the rotation of a fluorescent probe.

On to `CCN(CC)C(=O)C(=O)c1cn(CC(=O)Nc2cccc(C(F)(F)F)c2)c2ccccc12`, for which the IC50 is 360 nM. Turning to `CCN(CC)C(=O)C(=O)c1cn(CC(=O)Nc2cc(Oc3ccc(OC)cc3)cc(C(F)(F)F)c2)c2ccccc12`, the IC50 is 477 nM. With `O=C(Cc1ccc(Nc2nc3ccc(Br)cc3[nH]2)cc1)NCCc1cccs1` the entry was “inactive”; with `CCN(CC)C(=O)Cc1cn(CC(=O)Nc2cccc(C(F)(F)F)c2)c2ccccc12`, > 119000 nM (inactive). With `CCN(CC)C(=O)C(=O)c1cn(CCNc2cc(Oc3ccccc3)cc(C(F)(F)F)c2)c2ccccc12` the figure was > 119000 nM (inactive); with `CCN(CC)C(=O)C(=O)c1cn(CC(=O)Nc2cc(Oc3ccc(F)cc3)cc(C(F)(F)F)c2)c2ccccc12`, 632 nM. The value for `CCN(CC)C(=O)C(=O)c1cn(CC(=O)Nc2cc(Oc3ccccc3)cc(C(F)(F)F)c2)c2ccccc12` was 145 nM; that for `O=C(Cn1cc(C(=O)C(=O)NCc2ccccc2)c2ccccc21)Nc1cc(Oc2ccccc2)cc(C(F)(F)F)c1` was “inactive”.

In the case of `CCN(CC)C(=O)C(=O)c1cn(CC(=O)Nc2cc(Oc3ccccc3F)cc(C(F)(F)F)c2)c2ccccc12`, the IC50 was 381 nM. With `CCN(CC)C(=O)C(=O)c1cn(CC(=O)Nc2cc(Oc3ccccc3OC)cc(C(F)(F)F)c2)c2ccccc12` the figure was 521 nM.

Regarding `CCN(CC)C(=O)C(=O)c1cn(CCNc2cccc(C(F)(F)F)c2)c2ccccc12`, the IC50 was > 119000 nM (inactive). The value for `Nc1c(Cl)ncnc1Nc1ccc(C(=O)O)cc1` was 8500 nM.

Values taken from PubChem BioAssay AID1053134 (The Scripps Research Institute Molecular Screening Center, 2014).
